According to ChEMBL document CHEMBL1201862, “PubChem BioAssay data set” (2004):
Activity calls are given as the source filed them. For most assays here, no stated cut-off is given here; in the data, actives have a measured EC50 and inactives only a lower limit.

How the values were obtained:
[1] = molecular target: T1, High affinity choline transporter 1 (Homo sapiens, UniProt Q9GZV3); experiment: human choline transporter blockers, potency – cell-based, 5-point CRC, membrane potential dye, dose response (AID 504840); format: functional
T1 sequence (Q9GZV3 whole entry): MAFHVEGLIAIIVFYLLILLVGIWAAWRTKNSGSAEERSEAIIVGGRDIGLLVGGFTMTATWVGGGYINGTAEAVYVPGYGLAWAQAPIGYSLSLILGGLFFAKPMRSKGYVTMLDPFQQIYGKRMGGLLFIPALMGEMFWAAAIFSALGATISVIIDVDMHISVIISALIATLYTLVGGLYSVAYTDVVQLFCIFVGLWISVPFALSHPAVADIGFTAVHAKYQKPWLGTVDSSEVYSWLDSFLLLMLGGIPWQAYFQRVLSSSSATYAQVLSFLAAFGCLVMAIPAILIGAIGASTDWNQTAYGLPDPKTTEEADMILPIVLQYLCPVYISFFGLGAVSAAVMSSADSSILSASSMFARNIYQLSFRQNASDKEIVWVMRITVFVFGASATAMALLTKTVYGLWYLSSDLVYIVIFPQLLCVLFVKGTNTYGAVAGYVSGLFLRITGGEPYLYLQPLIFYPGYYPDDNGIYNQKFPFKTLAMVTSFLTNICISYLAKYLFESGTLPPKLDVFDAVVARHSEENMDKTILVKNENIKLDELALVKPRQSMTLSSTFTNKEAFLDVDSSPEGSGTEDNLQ

[2] = molecular target: T1, High affinity choline transporter 1; experiment: human choline transporter radiolabel uptake blockers – cell-based, 3H-choline uptake, CHT LV-AA trafficking mutant, CRC, dose response (AID 602208); format: functional
[3] = molecular target: T1, High affinity choline transporter 1; experiment: human choline transporter blockers, potency – cell-based, 10-point CRC, membrane potential dye, dose response (AID 588401); format: functional;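 further: membrane potential dye fluorescence of choline-evoked depolarization via CHT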
[4] = molecular target: Ras and Rab interactor 1/Tyrosine-protein kinase ABL1 (Homo sapiens, UniProt P00519+Q13671); format: functional;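 further: biochemical TR-FRET dose-response test measuring inhibition of binding between Rin1 and Abl proteins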
[5] = molecular target: T2, Apoptotic protease-activating factor 1 (Homo sapiens, UniProt O14727); experiment: SAR analysis of small molecule Activators of Apaf-1 in a Fluorescent assay.; format: functional; conditions: read-out: EC50_Mean;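 further: caspase-3 cleavage of fluorogenic Rh110 DEVD substrate downstream of apoptosome activation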
T2 sequence (O14727 whole entry): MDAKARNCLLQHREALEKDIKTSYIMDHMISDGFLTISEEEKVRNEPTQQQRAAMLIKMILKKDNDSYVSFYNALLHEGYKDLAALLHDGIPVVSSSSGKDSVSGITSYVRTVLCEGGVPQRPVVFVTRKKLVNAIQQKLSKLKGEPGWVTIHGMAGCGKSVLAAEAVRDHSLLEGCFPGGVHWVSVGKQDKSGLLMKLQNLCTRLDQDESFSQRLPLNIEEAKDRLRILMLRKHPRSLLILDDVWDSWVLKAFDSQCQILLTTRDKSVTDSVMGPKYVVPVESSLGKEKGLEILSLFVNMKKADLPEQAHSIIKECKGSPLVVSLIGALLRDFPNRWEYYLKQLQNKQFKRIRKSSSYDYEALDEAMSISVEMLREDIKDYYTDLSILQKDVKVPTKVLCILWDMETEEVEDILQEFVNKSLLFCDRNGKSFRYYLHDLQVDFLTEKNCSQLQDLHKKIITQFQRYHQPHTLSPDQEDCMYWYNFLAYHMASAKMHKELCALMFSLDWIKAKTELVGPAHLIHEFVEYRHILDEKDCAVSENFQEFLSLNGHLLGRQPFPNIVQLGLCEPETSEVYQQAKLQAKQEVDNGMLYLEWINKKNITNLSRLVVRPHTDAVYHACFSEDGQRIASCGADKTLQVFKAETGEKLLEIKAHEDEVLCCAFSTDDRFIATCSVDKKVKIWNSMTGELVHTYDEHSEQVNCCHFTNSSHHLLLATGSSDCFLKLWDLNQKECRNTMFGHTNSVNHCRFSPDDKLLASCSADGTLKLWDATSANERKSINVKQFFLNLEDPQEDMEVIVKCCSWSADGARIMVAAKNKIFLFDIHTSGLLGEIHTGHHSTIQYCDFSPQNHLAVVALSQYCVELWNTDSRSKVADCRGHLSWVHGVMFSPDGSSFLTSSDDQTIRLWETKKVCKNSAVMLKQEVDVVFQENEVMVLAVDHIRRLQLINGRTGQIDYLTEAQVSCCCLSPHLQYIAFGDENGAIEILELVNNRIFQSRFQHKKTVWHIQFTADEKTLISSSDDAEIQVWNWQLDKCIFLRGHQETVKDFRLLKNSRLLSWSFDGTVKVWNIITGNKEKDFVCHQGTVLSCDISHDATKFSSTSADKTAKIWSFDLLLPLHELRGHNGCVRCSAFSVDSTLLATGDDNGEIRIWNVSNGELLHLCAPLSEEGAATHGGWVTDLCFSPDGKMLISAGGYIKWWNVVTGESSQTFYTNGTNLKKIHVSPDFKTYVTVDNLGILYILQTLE

[6] = Luminescence Cell-Based Dose Response HTS to Identify Inhibitors of 5'UTR Stem-Loop Driven Prion Protein mRNA Translation in H4 Neuroglioblastoma Cells. [Related pubchem assays: 1827 (Project Summary), 1813 (Primary HTS)]; format: functional
[7] = molecular target: T3, Short transient receptor potential channel 4 (Mus musculus, UniProt Q9QUQ5); experiment: calcium entry via TRPC4 opening agents – cell-based, HEK293 TRPC4/mu-opioid, Fluo-4 calcium, dose response (AID 434937); format: functional
T3 sequence (Q9QUQ5 whole entry): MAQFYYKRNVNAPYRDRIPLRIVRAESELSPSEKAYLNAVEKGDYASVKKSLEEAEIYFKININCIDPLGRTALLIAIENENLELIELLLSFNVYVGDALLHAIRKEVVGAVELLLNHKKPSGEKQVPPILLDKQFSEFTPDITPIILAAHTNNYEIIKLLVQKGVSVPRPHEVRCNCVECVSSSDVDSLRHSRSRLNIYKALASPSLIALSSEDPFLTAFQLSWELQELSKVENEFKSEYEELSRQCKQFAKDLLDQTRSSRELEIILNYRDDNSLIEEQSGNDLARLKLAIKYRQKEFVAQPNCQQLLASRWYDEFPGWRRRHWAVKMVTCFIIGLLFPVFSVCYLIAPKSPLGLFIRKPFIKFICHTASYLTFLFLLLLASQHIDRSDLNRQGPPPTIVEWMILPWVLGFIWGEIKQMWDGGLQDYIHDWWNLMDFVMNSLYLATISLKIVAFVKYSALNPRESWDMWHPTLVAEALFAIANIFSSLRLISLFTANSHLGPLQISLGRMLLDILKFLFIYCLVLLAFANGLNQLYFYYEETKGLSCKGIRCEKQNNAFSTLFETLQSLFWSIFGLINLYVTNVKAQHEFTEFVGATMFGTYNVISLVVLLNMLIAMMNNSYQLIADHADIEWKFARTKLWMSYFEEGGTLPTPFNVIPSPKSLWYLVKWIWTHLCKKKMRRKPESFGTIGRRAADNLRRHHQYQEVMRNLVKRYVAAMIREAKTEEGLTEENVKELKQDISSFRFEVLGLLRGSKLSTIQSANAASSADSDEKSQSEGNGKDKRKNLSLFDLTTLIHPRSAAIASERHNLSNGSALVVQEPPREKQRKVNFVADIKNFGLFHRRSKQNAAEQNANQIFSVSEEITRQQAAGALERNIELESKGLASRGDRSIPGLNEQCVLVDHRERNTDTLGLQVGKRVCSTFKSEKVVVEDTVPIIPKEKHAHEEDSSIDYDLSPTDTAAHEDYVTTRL

[8] = luciferase reporter signal suppression in cells – H4 neuroglioma cells, luminescence, dose response (AID 1990); format: functional, cell-based
Beta-galactosidase = Beta-galactosidase (Escherichia coli, UniProt Q8VNN2); experiment: PubChem AID 485352; format: functional
[9] = alpha-synuclein stem-loop luciferase translation blockers – H4 neuroglioma cells, luminescence, confirmation (AID 1988); format: functional, cell-based
[10] = molecular target: Type-1 angiotensin II receptor (Homo sapiens, UniProt P30556); experiment: antagonism of angiotensin II type 1 receptor – cell-based, uHTS hits, selectivity assay for APJ receptor antagonist project, dose response (AID 463214); format: functional;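 further: antagonist potency against angiotensin II stimulated AT1 response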
[11] = molecular target: Heat shock protein HSP 90-alpha (Homo sapiens, UniProt P07900); format: functional, organism-based
[12] = molecular target: T4, Histone-lysine N-methyltransferase NSD2 (Homo sapiens, UniProt O96028); format: biochemical
T4 sequence (O96028 whole entry): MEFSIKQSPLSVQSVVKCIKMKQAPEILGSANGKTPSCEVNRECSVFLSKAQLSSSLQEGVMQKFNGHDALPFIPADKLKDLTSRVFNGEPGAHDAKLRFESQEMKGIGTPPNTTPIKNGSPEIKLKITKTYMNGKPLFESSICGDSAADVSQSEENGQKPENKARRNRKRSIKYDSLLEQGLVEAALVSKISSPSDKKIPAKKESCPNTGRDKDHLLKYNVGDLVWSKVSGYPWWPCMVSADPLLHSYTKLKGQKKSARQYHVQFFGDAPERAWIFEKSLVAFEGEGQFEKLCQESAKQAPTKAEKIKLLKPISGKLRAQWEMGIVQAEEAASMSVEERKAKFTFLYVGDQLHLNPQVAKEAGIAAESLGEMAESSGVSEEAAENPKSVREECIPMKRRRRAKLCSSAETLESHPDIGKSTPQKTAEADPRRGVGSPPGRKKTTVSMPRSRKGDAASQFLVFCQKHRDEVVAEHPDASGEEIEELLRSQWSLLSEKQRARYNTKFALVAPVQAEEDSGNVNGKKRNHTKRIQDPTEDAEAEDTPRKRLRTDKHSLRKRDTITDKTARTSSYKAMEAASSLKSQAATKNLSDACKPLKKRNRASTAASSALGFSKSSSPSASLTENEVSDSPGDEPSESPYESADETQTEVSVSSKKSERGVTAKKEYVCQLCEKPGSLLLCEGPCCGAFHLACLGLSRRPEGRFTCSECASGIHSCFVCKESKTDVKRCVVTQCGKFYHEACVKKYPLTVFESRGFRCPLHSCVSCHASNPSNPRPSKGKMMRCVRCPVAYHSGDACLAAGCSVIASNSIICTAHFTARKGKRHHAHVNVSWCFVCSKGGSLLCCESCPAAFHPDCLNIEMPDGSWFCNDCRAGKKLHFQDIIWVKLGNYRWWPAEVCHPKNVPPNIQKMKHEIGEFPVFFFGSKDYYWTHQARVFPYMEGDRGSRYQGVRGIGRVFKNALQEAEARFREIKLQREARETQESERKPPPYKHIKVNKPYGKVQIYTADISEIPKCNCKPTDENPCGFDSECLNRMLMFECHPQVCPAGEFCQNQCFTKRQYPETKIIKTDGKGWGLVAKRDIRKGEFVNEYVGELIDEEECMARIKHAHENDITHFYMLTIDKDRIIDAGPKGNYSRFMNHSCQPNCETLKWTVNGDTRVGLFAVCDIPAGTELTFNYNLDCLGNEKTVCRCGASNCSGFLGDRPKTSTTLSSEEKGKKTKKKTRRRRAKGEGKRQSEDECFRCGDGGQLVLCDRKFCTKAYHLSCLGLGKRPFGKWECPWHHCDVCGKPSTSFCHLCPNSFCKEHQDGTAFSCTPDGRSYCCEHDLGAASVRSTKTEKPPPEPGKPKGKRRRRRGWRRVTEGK

[13] = molecular target: ATP-dependent molecular chaperone HSP82 (Candida albicans (strain WO-1) (Yeast), UniProt C4YTQ8); experiment: steroid-induced GRE reporter decrease in yeast – S. cerevisiae, luminescence, Hsp90 inhibitor project, dose response (AID 2400); format: functional, cell-based;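 further: beta-galactosidase luminescence from glucocorticoid response element reporter as proxy for Hsp90 function; inhibitor potency where signal loss means Hsp90 inhibition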
[14] = molecular target: T5, Serine/threonine-protein phosphatase (Candida dubliniensis (strain CD36 / CBS 7987 / NCPF 3949 / NRRLY-17841) (Yeast), UniProt B9W6M3); experiment: blockers of CaCl2-induced CDRE-lacZ signaling – S. cerevisiae, luminescence, secondary, dose response (AID 2388); format: functional, cell-based;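 further: yeast reporter cells carrying a calcineurin-responsive lacZ construct stimulated with calcium chloride; luminescent beta-galactosidase reporter signal in whole cells rather than isolated phosphatase activity; potency for inhibition where a drop in reporter signal means calcineurin blockade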
T5 sequence (B9W6M3 whole entry): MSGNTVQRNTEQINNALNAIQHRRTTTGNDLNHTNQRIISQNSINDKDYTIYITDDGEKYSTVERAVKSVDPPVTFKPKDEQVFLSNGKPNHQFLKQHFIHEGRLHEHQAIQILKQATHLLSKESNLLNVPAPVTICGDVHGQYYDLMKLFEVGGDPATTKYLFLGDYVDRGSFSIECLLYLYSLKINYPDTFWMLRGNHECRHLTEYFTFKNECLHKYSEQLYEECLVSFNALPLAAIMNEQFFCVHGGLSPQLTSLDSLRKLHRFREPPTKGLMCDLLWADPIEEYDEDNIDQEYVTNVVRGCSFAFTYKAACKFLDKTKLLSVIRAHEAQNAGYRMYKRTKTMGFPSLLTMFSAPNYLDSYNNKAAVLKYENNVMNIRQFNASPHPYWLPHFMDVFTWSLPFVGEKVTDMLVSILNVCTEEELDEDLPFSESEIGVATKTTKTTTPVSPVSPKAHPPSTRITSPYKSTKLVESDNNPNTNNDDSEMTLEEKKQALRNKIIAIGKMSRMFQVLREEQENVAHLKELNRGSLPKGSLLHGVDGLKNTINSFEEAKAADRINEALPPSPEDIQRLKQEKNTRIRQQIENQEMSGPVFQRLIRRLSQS

[15] = fluconazole-exposed Candida albicans growth modulators – fluorescence, retest, confirmation (AID 2467); format: functional, cell-based
[16] = NIH-3T3 fibroblast cytotoxicity, dose response, cytotoxicity control, cell-based, fluorescence, Alamar Blue, secondary assay (AID 2327); format: functional;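 further: NIH-3T3 mouse fibroblasts cultured with fluconazole at 8 µg/mL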

Sequence of Ras and Rab interactor 1/Tyrosine-protein kinase ABL1 (P00519 whole entry): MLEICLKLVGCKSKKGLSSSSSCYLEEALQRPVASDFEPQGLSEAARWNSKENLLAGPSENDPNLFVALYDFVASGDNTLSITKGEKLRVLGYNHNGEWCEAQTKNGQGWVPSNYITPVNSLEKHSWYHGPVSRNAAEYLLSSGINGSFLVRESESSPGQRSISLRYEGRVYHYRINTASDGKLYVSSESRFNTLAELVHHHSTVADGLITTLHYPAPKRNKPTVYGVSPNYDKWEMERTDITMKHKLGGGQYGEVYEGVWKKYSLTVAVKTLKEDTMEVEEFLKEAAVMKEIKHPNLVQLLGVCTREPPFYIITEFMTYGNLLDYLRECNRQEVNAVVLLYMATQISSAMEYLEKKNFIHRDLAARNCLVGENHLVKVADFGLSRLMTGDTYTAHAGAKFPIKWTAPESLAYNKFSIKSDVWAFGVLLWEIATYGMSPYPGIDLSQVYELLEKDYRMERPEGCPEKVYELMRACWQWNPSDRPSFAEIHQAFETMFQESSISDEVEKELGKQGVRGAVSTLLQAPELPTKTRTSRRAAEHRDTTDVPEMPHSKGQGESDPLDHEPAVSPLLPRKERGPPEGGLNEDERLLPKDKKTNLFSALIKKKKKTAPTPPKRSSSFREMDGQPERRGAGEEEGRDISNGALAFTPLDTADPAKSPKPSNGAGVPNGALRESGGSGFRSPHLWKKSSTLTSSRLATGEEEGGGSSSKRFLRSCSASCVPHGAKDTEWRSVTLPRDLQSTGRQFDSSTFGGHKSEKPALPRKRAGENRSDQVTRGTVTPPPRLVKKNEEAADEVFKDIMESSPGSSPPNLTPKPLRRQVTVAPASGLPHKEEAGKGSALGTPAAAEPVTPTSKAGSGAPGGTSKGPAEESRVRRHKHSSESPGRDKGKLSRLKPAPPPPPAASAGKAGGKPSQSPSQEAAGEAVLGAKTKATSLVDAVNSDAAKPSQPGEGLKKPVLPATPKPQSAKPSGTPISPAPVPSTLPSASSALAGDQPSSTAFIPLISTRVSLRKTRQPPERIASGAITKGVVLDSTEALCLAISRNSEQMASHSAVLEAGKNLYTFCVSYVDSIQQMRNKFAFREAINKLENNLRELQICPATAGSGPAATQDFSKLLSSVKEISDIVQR
Sequence of Ras and Rab interactor 1/Tyrosine-protein kinase ABL1 (Q13671 whole entry): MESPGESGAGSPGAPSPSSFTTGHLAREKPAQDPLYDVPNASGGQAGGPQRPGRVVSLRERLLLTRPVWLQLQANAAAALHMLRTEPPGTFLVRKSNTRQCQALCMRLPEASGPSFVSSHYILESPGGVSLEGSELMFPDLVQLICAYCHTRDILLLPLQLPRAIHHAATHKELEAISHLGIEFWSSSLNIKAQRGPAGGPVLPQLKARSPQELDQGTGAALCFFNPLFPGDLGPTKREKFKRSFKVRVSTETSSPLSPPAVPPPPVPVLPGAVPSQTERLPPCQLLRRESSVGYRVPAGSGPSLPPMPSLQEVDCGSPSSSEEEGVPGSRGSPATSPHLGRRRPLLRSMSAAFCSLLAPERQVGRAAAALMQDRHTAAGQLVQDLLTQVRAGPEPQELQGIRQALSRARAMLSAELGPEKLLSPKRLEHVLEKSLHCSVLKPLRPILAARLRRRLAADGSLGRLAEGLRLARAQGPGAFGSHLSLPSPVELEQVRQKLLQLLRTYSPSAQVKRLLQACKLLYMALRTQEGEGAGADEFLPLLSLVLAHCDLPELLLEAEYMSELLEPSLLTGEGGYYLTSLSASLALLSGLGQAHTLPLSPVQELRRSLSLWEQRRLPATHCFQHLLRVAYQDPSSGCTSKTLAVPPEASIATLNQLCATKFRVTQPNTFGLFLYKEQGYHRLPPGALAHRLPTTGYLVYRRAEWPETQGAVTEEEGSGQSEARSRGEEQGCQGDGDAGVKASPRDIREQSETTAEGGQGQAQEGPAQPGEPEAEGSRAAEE
Sequence of ATP-dependent molecular chaperone HSP82 (C4YTQ8 whole entry): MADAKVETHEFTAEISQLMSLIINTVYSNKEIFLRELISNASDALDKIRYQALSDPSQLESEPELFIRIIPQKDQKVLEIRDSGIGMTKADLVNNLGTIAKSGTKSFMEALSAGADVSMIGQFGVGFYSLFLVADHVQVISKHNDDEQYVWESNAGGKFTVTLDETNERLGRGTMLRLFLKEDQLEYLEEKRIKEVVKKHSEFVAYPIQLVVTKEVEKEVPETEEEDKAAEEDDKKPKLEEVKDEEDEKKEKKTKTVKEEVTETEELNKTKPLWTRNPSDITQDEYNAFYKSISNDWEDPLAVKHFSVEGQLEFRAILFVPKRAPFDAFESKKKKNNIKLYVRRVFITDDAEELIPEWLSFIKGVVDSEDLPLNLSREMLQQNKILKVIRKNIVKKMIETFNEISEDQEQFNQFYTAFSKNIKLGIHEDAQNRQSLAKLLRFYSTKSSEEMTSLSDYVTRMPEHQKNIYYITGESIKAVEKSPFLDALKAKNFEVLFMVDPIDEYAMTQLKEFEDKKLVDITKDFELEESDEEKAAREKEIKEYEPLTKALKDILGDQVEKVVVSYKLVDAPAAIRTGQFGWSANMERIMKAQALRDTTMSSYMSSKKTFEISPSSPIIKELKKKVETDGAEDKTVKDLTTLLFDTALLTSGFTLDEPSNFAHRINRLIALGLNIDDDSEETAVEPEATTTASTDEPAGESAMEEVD
Sequence of Type-1 angiotensin II receptor (P30556 whole entry): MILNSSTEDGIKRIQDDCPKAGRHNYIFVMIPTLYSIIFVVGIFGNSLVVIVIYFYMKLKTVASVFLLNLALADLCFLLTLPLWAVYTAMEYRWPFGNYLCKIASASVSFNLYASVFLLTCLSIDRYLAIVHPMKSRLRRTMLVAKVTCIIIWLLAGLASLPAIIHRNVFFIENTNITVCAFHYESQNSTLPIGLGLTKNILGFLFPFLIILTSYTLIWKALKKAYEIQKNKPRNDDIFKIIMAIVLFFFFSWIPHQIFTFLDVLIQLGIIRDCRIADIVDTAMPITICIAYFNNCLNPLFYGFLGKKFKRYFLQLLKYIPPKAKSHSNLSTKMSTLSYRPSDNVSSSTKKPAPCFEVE
Sequence of Beta-galactosidase (Q8VNN2 whole entry): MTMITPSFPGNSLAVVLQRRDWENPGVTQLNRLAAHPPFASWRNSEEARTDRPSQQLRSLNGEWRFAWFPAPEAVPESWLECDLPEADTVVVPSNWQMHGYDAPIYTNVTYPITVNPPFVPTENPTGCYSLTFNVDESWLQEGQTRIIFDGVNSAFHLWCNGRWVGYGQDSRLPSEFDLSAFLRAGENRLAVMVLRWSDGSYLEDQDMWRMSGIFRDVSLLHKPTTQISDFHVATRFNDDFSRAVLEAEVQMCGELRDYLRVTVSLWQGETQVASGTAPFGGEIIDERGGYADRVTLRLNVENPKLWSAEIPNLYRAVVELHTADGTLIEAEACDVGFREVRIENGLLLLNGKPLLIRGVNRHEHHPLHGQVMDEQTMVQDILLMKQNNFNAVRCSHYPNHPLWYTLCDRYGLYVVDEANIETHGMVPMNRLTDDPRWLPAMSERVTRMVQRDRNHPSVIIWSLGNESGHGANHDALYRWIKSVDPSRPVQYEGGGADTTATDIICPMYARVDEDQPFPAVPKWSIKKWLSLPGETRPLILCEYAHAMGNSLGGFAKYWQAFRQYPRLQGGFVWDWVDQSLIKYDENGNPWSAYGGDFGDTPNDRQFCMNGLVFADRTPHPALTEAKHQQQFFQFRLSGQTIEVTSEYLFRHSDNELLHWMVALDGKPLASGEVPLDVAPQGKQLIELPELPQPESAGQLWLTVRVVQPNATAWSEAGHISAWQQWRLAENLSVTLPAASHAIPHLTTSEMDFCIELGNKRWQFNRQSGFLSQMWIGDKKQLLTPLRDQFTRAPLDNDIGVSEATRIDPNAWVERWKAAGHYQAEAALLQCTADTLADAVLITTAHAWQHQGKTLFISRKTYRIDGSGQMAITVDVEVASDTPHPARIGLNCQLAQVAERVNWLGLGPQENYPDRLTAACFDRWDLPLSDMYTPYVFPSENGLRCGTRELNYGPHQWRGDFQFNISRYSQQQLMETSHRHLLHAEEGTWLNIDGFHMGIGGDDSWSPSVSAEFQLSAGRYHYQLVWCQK

Compound: CC1CCC(NC(=O)c2cccc(S(=O)(=O)N3CCN(C)CC3)c2)CC1 (configuration not stated)
- IC50 [1]: 4.17 µM (active)
- IC50 [2]: 4.68 µM (active)
- IC50 [3]: 2.05 µM (active)

Compound: O=C1CNC(=O)/C1=C\NC12CC3CC(CC(C3)C1)C2
- IC50 [4]: 21 µM (inactive)

Compound: O=C(O)c1cc(-c2cc(F)c(F)cc2F)[nH]n1
- EC50 [5]: > 100 µM (inactive)

Compound: COc1ccccc1C(=O)NNC(=S)NC(=O)c1cccs1
- EC50 [6]: 13.2 µM (active)
- EC50 [7]: 6.68 µM (active)
- EC50 [8]: > 120 µM (not active)
- EC50 (Beta-galactosidase): > 40 µM (inactive)
- EC50 [9]: > 120 µM (not active)
- IC50 [10]: 20.4 µM (not active)
- AC50 [11]: 3.85 µM (active)

Compound: COc1ccc(OC)c(/C=C2\SC(=S)N(NS(=O)(=O)c3ccc(C)cc3)C2=O)c1
- AC50 [12]: 15.9 µM (active)
- EC50 [13]: 5.2 µM (active)
- EC50 [14]: > 180 µM (inactive)
- EC50 [15]: 0.832 µM (active)
- EC50 [16]: > 150 µM (inactive)
